Test [1] concerns S. epidermidis. The experiment in a line: Disc antimicrobial susceptibility test (BD BBL Sensi-Disc). The test is classed as cell-based, Staphylococcus epidermidis. Also noted: key: Susceptible; Intermediate; Resistant. As to conditions: 24 h. The method, then:
(§1) Supplementary file pone.0243315.s001.docx: S1 Table Antimicrobial susceptibility test results of reference strain and representative bacteria used from CRS patients. Bacterial suspensions were incubated with antibiotics for 24 h and the results were interpreted according to BD BBL™ Sensi-Disc™ antimicrobial susceptibility test discs. (DOCX) Click here for additional data file.
(§2) Antibiotics susceptibility testing was performed using BD BBL™ Sensi-Disc™ antimicrobial susceptibility test discs (Becton, Dickinson and Company, Franklin Lakes, NJ) and the results were interpreted according to the manufacturer's instructions.

Test [2] deals with P. aeruginosa. The description is as above. The test is classed as cell-based, Pseudomonas aeruginosa. Also noted: key: Susceptible; Intermediate; Resistant. As to conditions: 24 h. The method, then: as §1, §2
For test [3], the system named is P. aeruginosa ATCC27853. Described as above. Also noted: key: Susceptible; Intermediate; Resistant. Particulars: 24 h. The test is classed as cell-based, Pseudomonas aeruginosa. The method, then:
as §1, §2

Test [4] concerns K. pneumoniae. The description is as above. The test is classed as cell-based, Klebsiella pneumoniae. Also noted: key: Susceptible; Intermediate; Resistant. As to conditions: 24 h. The method, then: as §1, §2
Test [5] has as its system K. pneumoniae biofilm. The test can be described thus: microbe, parasite or virus in culture. The method, then:
(§3) The effects of both conventional antibiotics and AMPs against bacteria under biofilm-stimulating condition were determined using a transferable solid phase (TSP) pin lid, which resembles the ‘Calgary’ biofilm device as previously described with some modifications. Each strain (10^7 CFU/ml) was added to sterile 96-well plates (Nunclon™), then covered by a TSP pin lid (NUNC™, Roskilde, Denmark), and further incubated at 37 °C for 24 h. […] Additionally, the effect of TOB (2–836 μM or 1–391 μg/ml) against P. aeruginosa biofilm was also investigated. Then the plates were statically incubated at 37 °C for 24 h. A well free of antimicrobial agent was used as a control. After 24 h, bacterial survival was determined using the plate count technique on NA (Himedia®). The percentage killing of each antimicrobial agent was calculated using the formula [1 − (CFU sample/CFU control)] × 100% [15, 19]. […] Each experiment was performed independently three times in duplicate.

Test [6] deals with P. aeruginosa biofilm. The test can be described thus: microbe, parasite or virus in culture. The method, then:
as §3

The subject of test [7] is S. epidermidis biofilm. The test can be described thus: microbe, parasite or virus in culture. The method, then:
as §3

The test system of test [8] is K. pneumoniae biofilm. The test can be described thus: Checkerboard synergy of D-LL-31 with antibiotics on biofilm. The test is classed as cell-based, Klebsiella pneumoniae. As to conditions: Klebsiella pneumoniae, read-out: Antimicrobial agent in concentration of combination. The method, then:
(§4) Bacterial viability in each interaction was determined using the plate count technique. The fractional inhibitory concentration index (FICI) values were calculated and interpreted in terms of synergism/antagonism as previously described. Each experiment was performed independently three times in duplicate.

Test [9] has as its system P. aeruginosa biofilm. The description is as above. The test is classed as cell-based, Pseudomonas aeruginosa. The method, then:
as §4

For test [10], the system named is K. pneumoniae. The test can be described thus: Broth microdilution MIC/MBC of conventional antibiotics, planktonic form. The test is classed as cell-based, Klebsiella pneumoniae. Particulars: for MBC: broth microdilution then plate count on MHA; for MIC: broth microdilution, MHB, 5 x 10^5 CFU/ml, 37 °C, 24 h, CLSI. The method, then: (§5) MICs and MBCs of conventional antibiotics were determined using a broth microdilution technique. […] Only P. aeruginosa was additionally tested for susceptibility to TOB (Sigma-Aldrich) (0.03–52 μM or 0.01–25 μg/ml). Bacterial suspensions (5 x 10^5 CFU/ml) were added to the microtiter plates, which were then incubated at 37 °C for 24 h. Antibiotic-free culture was used as a control. […] The results were confirmed using a microplate reader at OD620 (Sunrise™, TECAN, Australia). The plate count technique was further used to determine the MBC values on Mueller Hinton agar (MHA) (Himedia®). Each experiment was performed independently three times in triplicate.

Test [11] concerns all strains (bacteria isolated from CRS patients). The test can be described thus: Broth microdilution susceptibility, statement for all strains. Particulars: planktonic form. The test is classed as cell-based. The method, then:
MICs and MBCs of conventional antibiotics were determined using a broth microdilution technique. […] Only P. aeruginosa was additionally tested for susceptibility to TOB (Sigma-Aldrich) (0.03–52 μM or 0.01–25 μg/ml). Bacterial suspensions (5 x 10^5 CFU/ml) were added to the microtiter plates, which were then incubated at 37 °C for 24 h. Antibiotic-free culture was used as a control. After incubation, MIC values were observed according to the guidelines of the Clinical & Laboratory Standards Institute (CLSI). The results were confirmed using a microplate reader at OD620 (Sunrise™, TECAN, Australia). The plate count technique was further used to determine the MBC values on Mueller Hinton agar (MHA) (Himedia®). Each experiment was performed independently three times in triplicate.

In test [12] the test system is S. epidermidis biofilm. The experiment in a line: Checkerboard synergy of D-LL-31 with antibiotics on biofilm. The test is classed as cell-based, Staphylococcus epidermidis. As to conditions: Staphylococcus epidermidis, read-out: Antimicrobial agent in concentration of combination. The method, then:
as §4

Test [13] has as its system S. epidermidis biofilm matrix. The test can be described thus: Biofilm matrix reduction (AAA-model, CLSM, COMSTAT biomass). The test is classed as cell-based, Staphylococcus epidermidis. Particulars: AMX alone at IC50 (33092 μM), 24 h, P < 0.05. The method, then: Briefly, 1.5 ml of each overnight culture (10^8 CFU/ml) was added to a 24-well tissue culture plate (Nunclon™). The plate was covered with a sterile stainless-steel lid containing glass coverslips and aerobically incubated at 37°C for 24 h. […] All tested conditions were incubated at 37°C for 24 h. A well free of antimicrobial agent was used as a control. Following incubation, biofilms were fixed with 2.5% glutaraldehyde (Sigma-Aldrich) at 25°C for 3 h. The fixed bacterial biofilms on glass coverslips were stained with 50 μg/ml Alexa Fluor® 488 (Invitrogen, Carlsbad, CA) for 30 min. This stain reacts with exopolysaccharide matrixes of the biofilm. The glass coverslips were then mounted with 80% glycerol and the stained cells were photographed using a confocal laser-scanning microscope (CLSM) (TCS SP8-Leica Microsystems, Wetzlar, Germany). […] Each experiment was performed independently three times in duplicate.

Test [14] concerns S. epidermidis. The test can be described thus: Broth microdilution MIC/MBC of conventional antibiotics, planktonic form. The test is classed as cell-based, Staphylococcus epidermidis. Particulars: MHB, 5 x 10^5 CFU/ml, 37 °C, 24 h, CLSI. The method, then:
as §5

For test [15], the system named is P. aeruginosa. The test is described as above. The test is classed as cell-based, Pseudomonas aeruginosa. As to conditions: for MBC: broth microdilution then plate count on MHA, planktonic. The method, then: as §5
In test [16] the test system is clinical isolate P. aeruginosa. The experiment in a line: Killing of planktonic bacteria (CFU count). The test is classed as cell-based, Pseudomonas aeruginosa. Particulars: 1–2 h. The method, then: (§6) A bacterial suspension without peptide served as a control. The samples were then serially diluted and cultivated on NA (Himedia®) and incubated for 24 h to allow colony counting. The percentage killing by each AMP was calculated using the formula [1 − (CFU sample/CFU control)] × 100% [15, 36]. Each experiment was performed independently three times in duplicate.

For test [17], the system named is reference strain P. aeruginosa ATCC 27853. The experiment in a line: Killing of planktonic bacteria (CFU count). The test is classed as cell-based, Pseudomonas aeruginosa. The method, then:
as §6

The mark [18] stands for this setting: highest concentration of AMX (68418 μM or 25000 μg/ml), 24 h biofilm, 24 h.
The mark [19] stands for this setting: Pseudomonas aeruginosa, 24 h, read-out: IC50 value.

Several values for one entry are separate records, joined by “and”; a condition that tells them apart may be missing. Equal entries are not always repeated. Where two headings read alike, the source gives them in different places. Ends that are not written are not given here. A value given as a limit tells only on which side of the number the result lay.

As for `Cc1onc(-c2ccccc2)c1C(=O)N[C@@H]1C(=O)N2[C@@H]1SC(C)(C)[C@@H]2C(=O)O` [OXA, Oxacillin], in test [1], the antimicrobial susceptibility result is listed as “S”.
For `CN(C)[C@@H]1C(O)=C(C(N)=O)C(=O)[C@@]2(O)C(O)=C3C(=O)c4c(O)cccc4[C@@](C)(O)[C@H]3C[C@@H]12` [TET, Tetracycline], the antimicrobial susceptibility entry in [2] was “R”; in test [3], “S”; in test [4], “I”; in test [1], “S”.
Turning to `CO/N=C(\C(=O)N[C@@H]1C(=O)N2C(C(=O)O)=C(CSc3nc(=O)c(=O)[nH]n3C)CS[C@H]12)c1csc(N)n1` [CRO, Ceftriaxone], the antimicrobial susceptibility result in [2] is listed as “R”; in test [3], “S”; in test [4], “S”; in [1] it was “S”.
Take `CNC(C)C1CCC(N)C(OC2C(N)CC(N)C(OC3OCC(C)(O)C(NC)C3O)C2O)O1` (centres unmarked) [GEN, Gentamicin]: the antimicrobial susceptibility entry in test [2] is listed as “I”; in [3], “S”; in test [4], “I”; in [1] it was “S”.
Take Penicillin: in [1], the antimicrobial susceptibility entry was “S”.
On to `CC1(C)S[C@@H]2[C@H](NC(=O)[C@H](N)c3ccccc3)C(=O)N2[C@H]1C(=O)O` [AMP, Ampicillin], for which the antimicrobial susceptibility entry in test [4] and in test [1] was “R” in each case.
LLGDFFRKSKEKIGKEFKRIVQRIKDFLRNL [LL-31]: the IC50 in [5] (biofilm, 24 h) is 0.7 µM; in test [6] (biofilm, 24 h), 5.3 µM; in [7] (biofilm, 24 h), 1.8 µM.
For the compound `NC[C@H]1O[C@H](O[C@H]2[C@H](O)[C@@H](O[C@H]3O[C@H](CO)[C@@H](O)[C@H](N)[C@H]3O)[C@H](N)C[C@@H]2N)[C@H](O)[C@@H](O)[C@@H]1O` [KAN, Kanamycin], the antimicrobial susceptibility entry in test [4] and in [1] was “S” each time.
Take `CC1(C)S[C@@H]2[C@H](NC(=O)[C@H](N)c3ccc(O)cc3)C(=O)N2[C@H]1C(=O)O` [AMX, amoxicillin]: the IC50 came out at 495 µM in test [8] (24 h); 181 µg/mL in [8]; 2820 µM in test [9] (Pseudomonas aeruginosa, 24 h; read-out: Antimicrobial agent in concentration of combination); 1030 µg/mL in test [9] (Pseudomonas aeruginosa; read-out: Antimicrobial agent in concentration of combination); 2070 µM in test [12] (24 h); 756 µg/mL in test [12]. The IC50 in test [5] (Klebsiella pneumoniae, 24 h, read-out: IC50 value) was 7.92 mM and 2900 µg/mL; in test [6] (setting [19]), 45.2 mM and 16500 µg/mL; in test [7] (Staphylococcus epidermidis, 24 h, read-out: IC50 value), 33.1 mM and 12100 µg/mL. Also, the MBC in test [10] (Klebsiella pneumoniae, read-out: MBC) turned out to be 8.55 mM; in test [10], 3125 µg/mL. Further, the MIC in test [10] (Klebsiella pneumoniae, three independent experiments in triplicate, read-out: MIC) was 4.28 mM; in [10], 1562.5 µg/mL; in [14], 1562.5 µg/mL; in test [14] (Staphylococcus epidermidis, read-out: MIC), 4.28 mM. Also, in [11], the susceptibility in words entry is given as “Resistance”. The “IC50 of AMX higher than that of D-LL-31” value is ~13000 fold in test [5] (biofilm), “about 11000 fold” in [6] (biofilm) and ~66000 fold in test [7] (biofilm). Also, the killing activity in test [5] (setting [18]) stood at 90%; in test [6] (setting [18]), 70%; in test [7] (setting [18]), 75%. Besides, the “effect on biofilm biomass” value in test [13] is listed as “significant effect”.
With `CC[C@H]1OC(=O)[C@H](C)[C@@H](O[C@H]2C[C@@](C)(OC)[C@@H](O)[C@H](C)O2)[C@H](C)[C@@H](O[C@@H]2O[C@H](C)C[C@H](N(C)C)[C@H]2O)[C@](C)(O)C[C@@H](C)C(=O)[C@H](C)[C@@H](O)[C@]1(C)O` [ERY, Erythromycin], the antimicrobial susceptibility result in test [1] is “R”.
Take `NC[C@H]1O[C@H](O[C@H]2[C@H](O)[C@@H](O[C@H]3O[C@H](CO)[C@@H](O)[C@H](N)[C@H]3O)[C@H](N)C[C@@H]2N)[C@H](N)C[C@@H]1O` [TOB, tobramycin]: the MBC turned out to be 0.001 mM in [15] (Pseudomonas aeruginosa, read-out: MBC) and 0.4 µg/mL in test [15]. Also, the susceptibility in words entry in test [15] (planktonic form) is listed as “susceptible”. Further, the “Fold decrease of IC50 values” in [9] (D-LL-31 combined with TOB; IC50 alone compared with concentration of combination) amounted to 16 fold. The IC50 in test [9] (Pseudomonas aeruginosa, 24 h, read-out: Antimicrobial agent in concentration of combination) was 0.2 µM; in test [9] (Pseudomonas aeruginosa, read-out: Antimicrobial agent in concentration of combination), 0.1 µg/mL; in test [6] (setting [19]) it was 4 µM and 2 µg/mL. In addition, the killing effect is listed as ≥ 92% in [16] (1 and 5 μM); ≥ 98% in test [17] (1 μM, 1 h). Further, the “concentration required to kill all bacterial cells” value in [16] (planktonic) was determined as 10 µM. Besides, the “killing of bacterial cells, in words” value in test [17] (5 and 10 μM, within 1 h) is on record as “killed all bacterial cells”. In addition, the antimicrobial susceptibility entry in test [2], in [3], in test [4] and in test [1] was “S” in each case. The “sensitivity of biofilm, in words” value in test [6] (24 h biofilm, 24 h) was “sensitive”.
With `O=C(N[C@H](CO)[C@H](O)c1ccc([N+](=O)[O-])cc1)C(Cl)Cl` [CHL, Chloramphenicol], the antimicrobial susceptibility result in test [2] is given as “R”; in [3], “S”; in test [4] it was “S”; in test [1], “S”.

Values taken from PMC7743948, “D-LL-31 enhances biofilm-eradicating effect of currently used antibiotics for chronic rhinosinusitis and its immunomodulatory activity on human lung epithelial cells” (PLoS ONE, 2020).
